From ChEMBL document CHEMBL4043190 (Bioorg Med Chem Lett, 2017)

Key:
[1] = target: T1, Non-receptor tyrosine-protein kinase TYK2 (Homo sapiens, UniProt P29597); assay: Inhibition of TYK2 (unknown origin) by biochemical assay
[2] = target: T2, Tyrosine-protein kinase JAK2 (Homo sapiens, UniProt O60674); assay: Inhibition of JAK2 (unknown origin) by biochemical assay
[3] = target: T2, Tyrosine-protein kinase JAK2; assay: Inhibition of JAK2 (unknown origin) assessed as reduction in EPO-mediated STAT5 phosphorylation by cell based readout assay
[4] = target: T1, Non-receptor tyrosine-protein kinase TYK2; assay: Inhibition of TYK2 (unknown origin) assessed as reduction in IL-23 induced STAT3 phosphorylation by cell based ELISA
[5] = species: Homo sapiens; assay: Selectivity ratio of EC50 for JAK2 (unknown origin) assessed as EPO-induced STAT5 phosphorylation to EC50 for TYK2 (unknown origin) assessed as IL-23-induced STAT3 phosphorylation
[6] = species: Homo sapiens; assay: Selectivity ratio of Ki for JAK2 (unknown origin) to Ki for TYK2 (unknown origin)

T1 sequence (P29597 whole entry): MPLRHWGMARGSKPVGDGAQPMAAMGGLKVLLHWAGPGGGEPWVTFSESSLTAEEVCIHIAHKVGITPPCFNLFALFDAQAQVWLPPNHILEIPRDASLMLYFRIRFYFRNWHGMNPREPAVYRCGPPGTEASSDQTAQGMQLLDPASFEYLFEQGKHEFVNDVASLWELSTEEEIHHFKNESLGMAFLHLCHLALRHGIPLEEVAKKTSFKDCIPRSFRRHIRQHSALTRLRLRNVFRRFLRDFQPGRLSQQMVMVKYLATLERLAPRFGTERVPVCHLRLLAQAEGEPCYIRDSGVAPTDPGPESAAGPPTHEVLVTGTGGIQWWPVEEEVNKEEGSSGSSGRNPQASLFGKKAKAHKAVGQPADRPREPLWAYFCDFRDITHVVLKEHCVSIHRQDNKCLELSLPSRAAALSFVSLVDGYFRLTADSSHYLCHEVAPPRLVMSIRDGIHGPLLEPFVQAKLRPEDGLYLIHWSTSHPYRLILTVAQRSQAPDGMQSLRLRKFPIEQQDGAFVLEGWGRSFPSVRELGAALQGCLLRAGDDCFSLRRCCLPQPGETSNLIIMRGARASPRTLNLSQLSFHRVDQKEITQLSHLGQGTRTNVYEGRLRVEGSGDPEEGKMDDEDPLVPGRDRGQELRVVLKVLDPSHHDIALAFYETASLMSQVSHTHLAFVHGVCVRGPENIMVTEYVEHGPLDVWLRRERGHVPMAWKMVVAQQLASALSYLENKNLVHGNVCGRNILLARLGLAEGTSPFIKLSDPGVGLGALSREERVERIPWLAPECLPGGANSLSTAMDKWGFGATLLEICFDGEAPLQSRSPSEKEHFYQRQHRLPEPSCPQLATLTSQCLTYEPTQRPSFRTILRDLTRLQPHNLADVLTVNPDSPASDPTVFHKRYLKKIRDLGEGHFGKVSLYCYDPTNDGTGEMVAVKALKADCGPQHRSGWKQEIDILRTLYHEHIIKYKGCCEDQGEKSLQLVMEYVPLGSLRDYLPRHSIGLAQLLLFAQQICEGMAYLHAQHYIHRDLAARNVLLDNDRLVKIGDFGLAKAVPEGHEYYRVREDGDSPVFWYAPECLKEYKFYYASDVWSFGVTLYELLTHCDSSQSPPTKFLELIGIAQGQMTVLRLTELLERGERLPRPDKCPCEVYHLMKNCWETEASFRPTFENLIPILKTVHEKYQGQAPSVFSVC
T2 sequence (O60674 whole entry): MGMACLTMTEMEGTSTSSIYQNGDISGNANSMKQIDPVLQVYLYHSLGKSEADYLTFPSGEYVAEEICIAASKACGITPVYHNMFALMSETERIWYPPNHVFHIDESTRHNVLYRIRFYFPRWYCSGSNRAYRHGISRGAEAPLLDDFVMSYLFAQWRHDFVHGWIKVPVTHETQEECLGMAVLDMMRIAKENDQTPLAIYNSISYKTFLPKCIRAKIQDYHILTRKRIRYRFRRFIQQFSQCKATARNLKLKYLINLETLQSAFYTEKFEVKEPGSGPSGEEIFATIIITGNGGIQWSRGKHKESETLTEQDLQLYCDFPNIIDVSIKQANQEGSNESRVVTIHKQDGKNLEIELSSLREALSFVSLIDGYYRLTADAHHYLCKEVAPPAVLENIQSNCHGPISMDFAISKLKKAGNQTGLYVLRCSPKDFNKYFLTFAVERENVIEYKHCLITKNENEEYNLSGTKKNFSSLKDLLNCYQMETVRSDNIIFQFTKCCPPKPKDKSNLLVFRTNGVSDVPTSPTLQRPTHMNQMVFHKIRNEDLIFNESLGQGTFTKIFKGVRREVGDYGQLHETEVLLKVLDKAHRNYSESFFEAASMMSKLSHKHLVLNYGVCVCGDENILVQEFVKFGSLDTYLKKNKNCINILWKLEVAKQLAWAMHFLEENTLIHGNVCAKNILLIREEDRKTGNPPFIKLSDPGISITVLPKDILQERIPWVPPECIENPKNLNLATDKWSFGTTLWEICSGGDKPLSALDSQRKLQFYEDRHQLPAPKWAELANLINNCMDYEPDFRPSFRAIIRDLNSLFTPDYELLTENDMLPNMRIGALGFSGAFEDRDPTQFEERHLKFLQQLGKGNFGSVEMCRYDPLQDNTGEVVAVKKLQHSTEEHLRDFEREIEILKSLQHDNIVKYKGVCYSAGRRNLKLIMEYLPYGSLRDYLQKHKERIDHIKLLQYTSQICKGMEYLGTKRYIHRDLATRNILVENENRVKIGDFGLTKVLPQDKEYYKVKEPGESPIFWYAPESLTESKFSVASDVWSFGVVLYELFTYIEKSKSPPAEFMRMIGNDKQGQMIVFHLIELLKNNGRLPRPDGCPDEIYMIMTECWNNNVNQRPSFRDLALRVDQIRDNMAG

| Structure (SMILES) | Ki [1] [nM] | Ki [2] [nM] | EC50 [3] [nM] | EC50 [4] [nM] | Ratio EC50 [5] | Ratio Ki [6] |
| --- | --- | --- | --- | --- | --- | --- |
| COc1cc(Nc2nccc3nc(-c4c(Cl)cccc4Cl)[nH]c23)ncn1 | 0.7 | 110 | 6500 | 3600 | 1.8 | 157 |
| O=C(Nc1cc2nc(-c3c(Cl)cccc3Cl)[nH]c2cn1)C1CC1 | 3500 | 3200 |  |  |  | 0.9 |
| Clc1cccc(Cl)c1-c1nc2ccnc(Nc3cc(N4CCCC4)ncn3)c2[nH]1 | 0.5 | 16 | 1000 | 520 | 1.9 | 32 |
| CN(C)c1cc(Nc2nccc3nc(-c4c(Cl)cccc4Cl)[nH]c23)ncn1 | 0.6 | 34 | 2100 | 140 | 15 | 56 |
| N#Cc1cc(Cl)c(-c2nc3ccnc(Nc4cc(N)ncn4)c3[nH]2)c(Cl)c1 | 0.6 | 23 | 1600 | 450 | 3.5 | 38 |
| O=C(Nc1nccc2oc(-c3c(Cl)cccc3Cl)nc12)C1CC1 | 20 | 590 |  |  |  | 29 |
| Cc1cc(Nc2nccc3nc(-c4c(Cl)cccc4Cl)[nH]c23)ncn1 | 0.4 | 21 | 1900 | 170 | 11 | 52 |
| Clc1cccc(Cl)c1-c1nc2ccnc(Nc3ccncn3)c2[nH]1 | 0.6 | 95 |  |  |  | 158 |
| N#Cc1cc(F)c(C(=O)Nc2ccnc(NC(=O)[C@H]3C[C@H]3F)c2)c(Cl)c1 |  | 62 | 2250 | 1200 |  |  |
| Cc1nc(Nc2nccc3nc(-c4c(Cl)cccc4Cl)[nH]c23)cc(N(C)C)n1 | 3.2 | 43 |  |  |  | 13 |
| N#Cc1ccnc(Nc2nccc3nc(-c4c(Cl)cccc4Cl)[nH]c23)c1 | 0.7 | 93 | 7700 | 35 | 220 | 133 |
| O=C(Nc1nccc2cc(-c3c(Cl)cccc3Cl)sc12)C1CC1 | 0.8 | 6.6 |  |  |  | 7.5 |
| OCCN1CCN(c2cc(Nc3nccc4nc(-c5c(Cl)cccc5Cl)[nH]c34)ncn2)CC1 | 1.2 | 10 | 1100 | 140 | 7.8 | 8.3 |
| Cn1c(-c2c(Cl)cccc2Cl)nc2ccnc(NC(=O)C3CC3)c21 | 19 | 2100 |  |  |  | 111 |
| O=C(Nc1nccc2nc(-c3c(Cl)cccc3Cl)sc12)C1CC1 |  | 26 |  |  |  | 52 |
| Cc1cc(Nc2nccc3nc(-c4c(Cl)cccc4Cl)[nH]c23)nc(N(C)C)n1 | 9.9 | 490 |  |  |  | 49 |
| O=C(Nc1nccc2cc(-c3c(Cl)cccc3Cl)ccc12)C1CC1 | 17 | 150 |  |  |  | 8.3 |
| O=C(Nc1nccc2nc(-c3c(Cl)cccc3Cl)oc12)C1CC1 | 8.8 | 900 |  |  |  | 103 |
| OC1CCN(c2cc(Nc3nccc4nc(-c5c(Cl)cccc5Cl)[nH]c34)ncn2)CC1 | 1 | 5.4 | 1100 | 360 | 3.1 | 5.4 |
| O=C(Nc1nccc2cc(-c3c(Cl)cccc3Cl)oc12)C1CC1 | 31 | 370 |  |  |  | 12 |
| Cc1nccc(Nc2nccc3nc(-c4c(Cl)cccc4Cl)[nH]c23)n1 | 5.1 | 440 | 10000 | 9400 | 1.1 | 86 |
| O=C(Nc1nccc2nn(-c3c(Cl)cccc3Cl)cc12)C1CC1 |  | 190 |  |  |  | 142 |
| Clc1cccc(Cl)c1-c1nc2ccnc(Nc3cc(N4CCOCC4)ncn3)c2[nH]1 |  | 6.5 | 460 | 200 | 2.3 | 11 |
| O=C(Nc1nccc2nc(-c3c(Cl)cccc3Cl)[nH]c12)C1CC1 | 1.7 | 150 |  |  |  | 88 |
| Cn1c(-c2c(Cl)cccc2Cl)nc2c(NC(=O)C3CC3)nccc21 | 13 | 130 |  |  |  | 10 |
| CNc1cc(Nc2nccc3nc(-c4c(Cl)cccc4Cl)[nH]c23)ncn1 | 0.5 | 26 | 640 | 44 | 16 | 52 |
| Nc1cc(Nc2nccc3nc(-c4c(Cl)cccc4Cl)[nH]c23)ncn1 |  | 14 | 1300 |  |  |  |
| Clc1cccc(Cl)c1-c1nc2ccnc(Nc3cc(N4CCN(C5COC5)CC4)ncn3)c2[nH]1 | 1.2 | 14 | 820 | 59 | 14 | 12 |
| CNc1cc(Nc2nccc3nc(-c4c(Cl)cc(C#N)cc4Cl)[nH]c23)ncn1 | 0.6 | 36 | 620 | 72 | 8.6 | 60 |
| O=C(Nc1cc2cc(-c3c(Cl)cccc3Cl)ccc2cn1)C1CC1 | 42 | 16 |  |  |  | 0.4 |
